Assay results published in patent US20220317138A1, “METHODS FOR DETERMINING THE CONCENTRATION OF A CARBAPENEM ANTIBIOTIC IN A BIOLOGICAL SAMPLE” (priority 2019, published 2022).
Like-named read-outs stand apart in the source and are kept apart here.

Key:
[1] = target: T1, beta-lactamase class D OXA-48 (Klebsiella pneumoniae, UniProt Q6XEC0); assay type: biochemical; conditions: for Accuracy <> (average) / [Meropenem] <> (average): average of 5 replicates
Outline: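 Carbapenem (e.g. meropenem) measurement tested for selectivity in the presence of a second beta-lactam antibiotic at up to 10 times the meropenem concentration. Second beta-lactam stocks prepared in water.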

[2] = system: Imp4 beta-lactamase (class B); test: Screening of beta-lactamases by competition, nitrocefin as reporter substrate; assay type: biochemical
[3] = target: Ndm1 beta-lactamase (class B) (Klebsiella pneumoniae, UniProt C7C422); assay type: biochemical; conditions: nitrocefin reporter
[4] = target: Imp1 beta-lactamase (class B) (Serratia marcescens, UniProt P52699); assay type: biochemical; conditions: nitrocefin reporter
[5] = system: Per2 beta-lactamase (class A); test: Screening of beta-lactamases by competition, nitrocefin as reporter substrate; assay type: biochemical
[6] = system: AmpCHD beta-lactamase (class C); test: as above; assay type: biochemical
[7] = target: P99 beta-lactamase (class C) (Enterobacter cloacae, UniProt P05364); assay type: biochemical; conditions: nitrocefin reporter
[8] = system: OXA-163; conditions: OXA-163, for meropenem; cited from earlier work
[9] = target: Oxa48 beta-lactamase (class D) (Klebsiella pneumoniae, UniProt Q6XEC0); assay type: biochemical; conditions: nitrocefin reporter
[10] = target: T1, beta-lactamase class D OXA-48; assay type: biochemical; conditions: OXA-48, nitrocefin, 482 nm
[11] = target: Kpc2 beta-lactamase (class A) (Klebsiella pneumoniae, UniProt Q9F663); assay type: biochemical; conditions: nitrocefin reporter
[12] = target: CTXM15 beta-lactamase (class A) (Escherichia coli, UniProt Q9EXV5); assay type: biochemical; conditions: nitrocefin reporter
[13] = target: OXA-48 (Klebsiella pneumoniae, UniProt Q6XEC0); conditions: OXA-48, for meropenem; cited from earlier work
[14] = target: BlaP beta-lactamase (class A) (Bacillus licheniformis, UniProt P00808); assay type: biochemical; conditions: nitrocefin reporter
[15] = Meropenem 1.2 mg/L, second β-lactam 10.0 mg/L (8.4 times excess)
[16] = Meropenem 20.0 mg/L, second β-lactam 200.0 mg/L (10 times excess)

T1 sequence (Q6XEC0 23-265 limits assumed): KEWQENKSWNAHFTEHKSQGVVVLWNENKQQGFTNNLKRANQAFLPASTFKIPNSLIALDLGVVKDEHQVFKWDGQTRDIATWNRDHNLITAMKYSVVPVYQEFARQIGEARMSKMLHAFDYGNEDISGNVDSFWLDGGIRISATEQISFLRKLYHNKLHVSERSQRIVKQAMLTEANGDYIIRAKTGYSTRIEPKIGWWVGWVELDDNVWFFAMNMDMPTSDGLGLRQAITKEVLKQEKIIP
Sequence of P99 beta-lactamase (class C) (P05364 21-381): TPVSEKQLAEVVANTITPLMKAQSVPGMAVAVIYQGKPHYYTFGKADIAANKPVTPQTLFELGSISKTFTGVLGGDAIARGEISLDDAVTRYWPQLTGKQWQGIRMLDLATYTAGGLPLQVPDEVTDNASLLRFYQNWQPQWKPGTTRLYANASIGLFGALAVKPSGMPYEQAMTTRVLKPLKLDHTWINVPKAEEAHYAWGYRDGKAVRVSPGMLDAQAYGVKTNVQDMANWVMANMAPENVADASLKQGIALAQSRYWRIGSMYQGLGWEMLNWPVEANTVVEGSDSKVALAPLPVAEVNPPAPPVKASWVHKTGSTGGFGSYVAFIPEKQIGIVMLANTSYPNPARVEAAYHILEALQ
Sequence of Imp1 beta-lactamase (class B) (P52699 19-246 limits assumed): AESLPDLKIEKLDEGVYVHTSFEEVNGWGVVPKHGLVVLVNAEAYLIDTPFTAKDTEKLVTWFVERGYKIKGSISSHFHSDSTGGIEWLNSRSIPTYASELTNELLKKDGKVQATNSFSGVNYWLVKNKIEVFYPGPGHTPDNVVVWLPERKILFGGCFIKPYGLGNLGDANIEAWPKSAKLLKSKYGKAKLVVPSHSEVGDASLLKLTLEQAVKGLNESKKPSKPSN
Sequence of BlaP beta-lactamase (class A) (P00808 27-307 limits assumed): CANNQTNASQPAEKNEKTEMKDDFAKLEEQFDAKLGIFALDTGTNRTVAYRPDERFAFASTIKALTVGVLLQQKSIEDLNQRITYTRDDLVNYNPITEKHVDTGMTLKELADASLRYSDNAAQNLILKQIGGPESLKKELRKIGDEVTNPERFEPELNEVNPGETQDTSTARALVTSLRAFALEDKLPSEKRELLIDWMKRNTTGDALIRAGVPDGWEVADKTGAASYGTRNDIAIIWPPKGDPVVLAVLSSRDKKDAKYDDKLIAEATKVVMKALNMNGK
Sequence of Kpc2 beta-lactamase (class A) (Q9F663 25-293 limits assumed): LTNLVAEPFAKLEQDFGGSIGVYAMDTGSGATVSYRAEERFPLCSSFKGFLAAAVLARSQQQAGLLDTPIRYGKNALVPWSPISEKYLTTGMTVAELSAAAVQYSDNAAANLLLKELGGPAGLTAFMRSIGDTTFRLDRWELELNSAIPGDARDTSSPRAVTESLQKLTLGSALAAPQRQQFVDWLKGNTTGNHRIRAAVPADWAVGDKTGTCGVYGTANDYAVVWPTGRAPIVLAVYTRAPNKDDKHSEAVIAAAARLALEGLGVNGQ
Sequence of CTXM15 beta-lactamase (class A) (Q9EXV5 29-291 limits assumed): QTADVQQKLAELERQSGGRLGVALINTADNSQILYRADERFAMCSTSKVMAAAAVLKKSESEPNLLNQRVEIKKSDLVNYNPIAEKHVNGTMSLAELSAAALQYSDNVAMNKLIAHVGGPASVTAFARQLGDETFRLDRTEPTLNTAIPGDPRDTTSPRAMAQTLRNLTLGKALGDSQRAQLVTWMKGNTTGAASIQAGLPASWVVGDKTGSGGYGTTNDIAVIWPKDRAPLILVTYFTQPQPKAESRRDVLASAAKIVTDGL
Sequence of Ndm1 beta-lactamase (class B) (C7C422 29-270 limits assumed): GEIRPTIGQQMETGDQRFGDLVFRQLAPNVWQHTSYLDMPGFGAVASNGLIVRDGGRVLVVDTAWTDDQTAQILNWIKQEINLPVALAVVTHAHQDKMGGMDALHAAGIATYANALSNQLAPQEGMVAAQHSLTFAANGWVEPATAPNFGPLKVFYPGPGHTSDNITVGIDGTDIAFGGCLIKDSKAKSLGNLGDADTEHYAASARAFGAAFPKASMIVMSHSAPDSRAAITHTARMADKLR
Sequence of OXA-48 (Q6XEC0 23-265 limits assumed): as the sequence (Q6XEC0 23-265 limits assumed) above
Sequence of Oxa48 beta-lactamase (class D) (Q6XEC0 23-265 limits assumed): as above

Row | Structure (SMILES) | Accuracy <> (average) [1, 15] | [Meropenem] <> (average) [1, 15] | Accuracy Replicate 1 [1, 15] | [Meropenem] Replicate 1 [1, 15] | Accuracy Replicate 2 [1, 15] | [Meropenem] Replicate 2 [1, 15] | Accuracy Replicate 3 [1, 15] | [Meropenem] Replicate 3 [1, 15] | Accuracy Replicate 4 [1, 15] | [Meropenem] Replicate 4 [1, 15] | Accuracy Replicate 5 [1, 15] | [Meropenem] Replicate 5 [1, 15] | Accuracy <> (average) [1, 16] | [Meropenem] <> (average) [1, 16] | Accuracy Replicate 1 [1, 16] | [Meropenem] Replicate 1 [1, 16] | Accuracy Replicate 2 [1, 16] | [Meropenem] Replicate 2 [1, 16] | Accuracy Replicate 3 [1, 16] | [Meropenem] Replicate 3 [1, 16] | other results
1 | Cn1nnnc1SCC1=C(C(=O)O)N2C(=O)[C@@H](NC(=O)[C@H](O)c3ccccc3)[C@H]2SC1 [Cefamandole ®, Cefamandole] | 115% | 1.3 mg/L | 112% | 1.3 mg/L | 116% | 1.3 mg/L | 114% | 1.3 mg/L | 123% | 1.4 mg/L | 112% | 1.3 mg/L | 99% | 22.0 mg/L | 97% | 21.5 mg/L | 98% | 21.9 mg/L | 99% | 22.2 mg/L | Accuracy Replicate 4 [1, 16]: 105%; [Meropenem] Replicate 4 [1, 16]: 23.4 mg/L; Accuracy Replicate 5 [1, 16]: 94%; [Meropenem] Replicate 5 [1, 16]: 21.0 mg/L; hydrolysis rate symbol, (Vmax/V0)-1 [2]: ++ (1-10); hydrolysis rate symbol, (Vmax/V0)-1 [3]: + (0.1-1); hydrolysis rate symbol, (Vmax/V0)-1 [4]: ++ (1-10); hydrolysis rate symbol, (Vmax/V0)-1 [5]: + (0.1-1); hydrolysis rate symbol, (Vmax/V0)-1 [6]: ++ (1-10); hydrolysis rate symbol, (Vmax/V0)-1 [7]: ++ (1-10)
2 | C[C@@H](O)[C@H]1C(=O)N2C(C(=O)O)=C(S[C@@H]3CN[C@H](C(=O)N(C)C)C3)[C@H](C)[C@H]12 [Meropenem, meropenem] | 100% | 1.2 mg/L | 98% | 1.1 mg/L | 100% | 1.2 mg/L | 97% | 1.1 mg/L | 108% | 1.3 mg/L | 97% | 1.1 mg/L | 100% | 20.2 mg/L | 103% | 20.7 mg/L | 104% | 20.9 mg/L | 98% | 19.8 mg/L | Accuracy Replicate 4 [1, 16]: 98%; [Meropenem] Replicate 4 [1, 16]: 19.9 mg/L; Accuracy Replicate 5 [1, 16]: 97%; [Meropenem] Replicate 5 [1, 16]: 19.6 mg/L; Km [8]: 2200 µM; hydrolysis rate symbol, (Vmax/V0)-1 [2]: + (0.1-1); hydrolysis rate symbol, (Vmax/V0)-1 [9]: +++ (10-100); hydrolysis rate symbol, (Vmax/V0)-1 [4]: + (0.1-1); lower limit of quantification (LLOQ) [10]: 0.5 mg/L; upper limit of quantification (ULOQ) [10]: 20 mg/L; hydrolysis rate symbol, (Vmax/V0)-1 [11]: + (0.1-1); hydrolysis rate symbol, (Vmax/V0)-1 [6]: + (0.1-1); hydrolysis rate symbol, (Vmax/V0)-1 [12]: +++ (10-100); Km [13]: 200 µM; hydrolysis rate symbol, (Vmax/V0)-1 [7]: +++ (10-100); hydrolysis rate symbol, (Vmax/V0)-1 [14]: + (0.1-1)
